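Growth conditions: 96-well plates. Treatment: test compound, 48 hours, 5 concentrations. Analysis: linear interpolation between bracketing concentrations; unreached endpoints set to highest concentration. At the GI50, growth is halved.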 Activity calls are given as the source filed them. No stated cut-off is given here; in the data, active = GI50 up to about 1.1 µM and inactive = higher.
Key:
Assay in all cases: inhibition of tumour cell growth, NCI panel, 48 h
[1] = test system: 786-0
[2] = test system: ACHN
[3] = test system: COLO 205
[4] = test system: DU-145
[5] = test system: EKVX
[6] = test system: HCT-15
[7] = test system: KM12
[8] = test system: MDA-MB-435
[9] = test system: NCI-H226
[10] = test system: NCI/ADR-RES
[11] = test system: RPMI-8226
[12] = test system: SF-268
[13] = test system: SK-MEL-2
[14] = test system: SR
[15] = test system: SW-620
[16] = test system: U-251
[17] = test system: UACC-257
[18] = test system: UO-31
[19] = test system: Malme-3M

CCOC(=O)C12CCC(=O)N1N(C)c1ncccc1N2 (configuration not stated)
GI50 [1]: > 100 µM (inactive) | GI50 [2]: > 100 µM (inactive) | GI50 [3]: > 100 µM (inactive) | GI50 [4]: > 100 µM (inactive) | GI50 [5]: > 100 µM (inactive) | GI50 [6]: > 100 µM | GI50 [7]: > 100 µM (inactive) | GI50 [8]: > 100 µM (inactive) | GI50 [9]: > 100 µM (inactive) | GI50 [10]: > 100 µM (inactive) | GI50 [11]: > 100 µM (inactive) | GI50 [12]: > 100 µM (inactive) | GI50 [13]: < 0.01 µM (active) | GI50 [14]: > 100 µM (inactive) | GI50 [15]: > 100 µM (inactive) | GI50 [16]: > 100 µM (inactive) | GI50 [17]: > 100 µM (inactive) | GI50 [18]: > 100 µM (inactive)

Cc1ccc(NC(=O)CSc2nc(C)nc3c2sc(=S)n3-c2ccccc2)cc1
GI50 [1]: 2.37 µM (inactive) | GI50 [2]: 8.77 µM (inactive) | GI50 [3]: 6.15 µM (inactive) | GI50 [4]: > 10 µM (inactive) | GI50 [5]: 5.08 µM (inactive) | GI50 [6]: > 10 µM | GI50 [7]: > 10 µM (inactive) | GI50 [8]: 4.06 µM (inactive) | GI50 [19]: 7.8 µM (inactive) | GI50 [9]: 3.33 µM (inactive) | GI50 [10]: 4.7 µM (inactive) | GI50 [11]: > 10 µM (inactive) | GI50 [12]: 6.14 µM (inactive) | GI50 [13]: > 10 µM (inactive) | GI50 [14]: 9.89 µM (inactive) | GI50 [15]: > 10 µM (inactive) | GI50 [16]: 3.84 µM (inactive) | GI50 [17]: > 10 µM (inactive)

O=C(O)CCC(NC(=O)c1ccc(OCc2nc3cc(C(F)(F)F)ccc3nc2-c2ccccc2)cc1)C(=O)O (configuration not stated)
GI50 [1]: > 100 µM (inactive) | GI50 [2]: > 100 µM (inactive) | GI50 [3]: > 100 µM (inactive) | GI50 [4]: > 100 µM (inactive) | GI50 [5]: > 100 µM (inactive) | GI50 [6]: > 100 µM | GI50 [7]: > 100 µM (inactive) | GI50 [8]: > 100 µM (inactive) | GI50 [19]: > 100 µM (inactive) | GI50 [9]: > 100 µM (inactive) | GI50 [10]: > 100 µM (inactive) | GI50 [12]: > 100 µM (inactive) | GI50 [13]: > 100 µM (inactive) | GI50 [14]: 9.31 µM (inactive) | GI50 [15]: > 100 µM (inactive) | GI50 [16]: > 100 µM (inactive) | GI50 [17]: > 100 µM (inactive) | GI50 [18]: > 100 µM (inactive)

COc1ccc(NC(=S)Nc2cc(C)cc(C)n2)cc1
GI50 [1]: > 100 µM (inactive) | GI50 [3]: > 100 µM (inactive) | GI50 [4]: > 100 µM (inactive) | GI50 [5]: > 100 µM (inactive) | GI50 [6]: > 100 µM | GI50 [7]: > 100 µM (inactive) | GI50 [8]: > 100 µM (inactive) | GI50 [19]: > 100 µM (inactive) | GI50 [9]: > 100 µM (inactive) | GI50 [10]: > 100 µM (inactive) | GI50 [11]: > 100 µM (inactive) | GI50 [12]: > 100 µM (inactive) | GI50 [13]: > 100 µM (inactive) | GI50 [14]: > 100 µM (inactive) | GI50 [15]: > 100 µM (inactive) | GI50 [16]: > 100 µM (inactive) | GI50 [17]: > 100 µM (inactive) | GI50 [18]: > 100 µM (inactive)

O=C(c1ccccn1)C1(N2CCCCC2)CCCCC1
GI50 [1]: > 100 µM (inactive) | GI50 [2]: > 100 µM (inactive) | GI50 [3]: > 100 µM (inactive) | GI50 [4]: > 100 µM (inactive) | GI50 [5]: > 100 µM (inactive) | GI50 [6]: > 100 µM | GI50 [7]: > 100 µM (inactive) | GI50 [8]: > 100 µM (inactive) | GI50 [9]: > 100 µM (inactive) | GI50 [10]: 46.5 µM (inactive) | GI50 [11]: 50.2 µM (inactive) | GI50 [12]: 17.5 µM (inactive) | GI50 [13]: > 100 µM (inactive) | GI50 [14]: > 100 µM (inactive) | GI50 [15]: > 100 µM (inactive) | GI50 [16]: > 100 µM (inactive) | GI50 [17]: > 100 µM (inactive) | GI50 [18]: > 100 µM (inactive)

O=C(Cn1c2ccc(Br)cc2c2nc3ccccc3nc21)N/N=C/c1ccccc1
GI50 [1]: 12.3 µM (inactive) | GI50 [2]: > 100 µM (inactive) | GI50 [3]: > 100 µM (inactive) | GI50 [4]: > 100 µM (inactive) | GI50 [5]: > 100 µM (inactive) | GI50 [7]: > 100 µM (inactive) | GI50 [8]: > 100 µM (inactive) | GI50 [9]: > 100 µM (inactive) | GI50 [10]: > 100 µM (inactive) | GI50 [11]: > 10 µM (inactive) | GI50 [12]: 87.3 µM (inactive) | GI50 [13]: 83.6 µM (inactive) | GI50 [14]: 78.2 µM (inactive) | GI50 [15]: > 100 µM (inactive) | GI50 [16]: 85.7 µM (inactive) | GI50 [17]: > 100 µM (inactive) | GI50 [18]: > 100 µM (inactive)

CN(C)C(=O)Oc1ccc(-c2cn3cc(NC(=O)c4ccccc4)ccc3n2)cc1
GI50 [1]: > 100 µM (inactive) | GI50 [2]: > 100 µM (inactive) | GI50 [3]: 14.3 µM (inactive) | GI50 [4]: > 100 µM (inactive) | GI50 [5]: > 100 µM (inactive) | GI50 [6]: > 100 µM | GI50 [7]: 55.5 µM (inactive) | GI50 [8]: 85.7 µM (inactive) | GI50 [9]: > 100 µM (inactive) | GI50 [10]: > 100 µM (inactive) | GI50 [11]: 19.1 µM (inactive) | GI50 [12]: 80.4 µM (inactive) | GI50 [13]: > 100 µM (inactive) | GI50 [14]: 29.3 µM (inactive) | GI50 [15]: 48.5 µM (inactive) | GI50 [16]: 45.3 µM (inactive) | GI50 [17]: 53.8 µM (inactive) | GI50 [18]: > 100 µM (inactive)

CCn1c(=O)c2c(=O)[nH][nH]c2c2ccccc21
GI50 [1]: > 100 µM (inactive) | GI50 [2]: > 100 µM (inactive) | GI50 [3]: > 100 µM (inactive) | GI50 [4]: > 100 µM (inactive) | GI50 [5]: > 100 µM (inactive) | GI50 [6]: > 100 µM | GI50 [7]: > 100 µM (inactive) | GI50 [8]: > 100 µM (inactive) | GI50 [19]: > 100 µM (inactive) | GI50 [9]: > 100 µM (inactive) | GI50 [10]: > 100 µM (inactive) | GI50 [11]: > 100 µM (inactive) | GI50 [14]: > 100 µM (inactive) | GI50 [15]: > 100 µM (inactive) | GI50 [16]: > 100 µM (inactive) | GI50 [17]: > 100 µM (inactive) | GI50 [18]: > 100 µM (inactive)

From ChEMBL document CHEMBL1201862, “PubChem BioAssay data set” (2004)
